The values that follow come from PMC2858705 (PLoS Pathogens, 2010).

Where “and” joins values, the source holds several entries; their conditions need not be identical. Equal entries are not always repeated. Where two headings read alike, the source gives them in different places.

For one assay, the target named is VV:N7-MTase. As to conditions: cited from earlier work.
A further assay has as its target VV:2'O-MTase. The conditions noted are these: cited from earlier work.
The next assay has as its target DV:NS5MTase. As to conditions: read-out: IC50 2'O-MTase activity of DV:NS5MTase; cited from earlier work.
In the next assay the target is SARS-CoV nsp14 N7-MTase (Severe acute respiratory syndrome coronavirus, UniProt P0C6X7). The experiment in a line: biochemical. Format: biochemical.
The target in assay [1] is SARS-CoV nsp10/nsp16 2'O-MTase (Severe acute respiratory syndrome coronavirus, UniProt P0C6X7). The experiment in a line: biochemical. The class given is biochemical.
The next assay deals with SARS-CoV. The conditions noted are these: infected cells; cited from earlier work.

As for `Nc1ncnc2c1ncn2[C@@H]1O[C@H](C[C@@H](N)CC[C@H](N)C(=O)O)[C@@H](O)[C@H]1O` [sinefungin, adenosyl-ornithine], the IC50 at VV:N7-MTase was 12 nM; on VV:2'O-MTase, 39.5 nM; on DV:NS5MTase, 420 nM and 630 nM.

One may read the Ki as a dissociation constant, usually derived from enzyme kinetics or from competition with a known ligand. Take `Nc1ncnc2c1ncn2[C@@H]1O[C@H](CSCC[C@H](N)C(=O)O)[C@@H](O)[C@H]1O` [AdoHcy, S-adenosyl-l-homocysteine]: the results for the inhibitory constant (Ki) on VV:N7-MTase and on VV:2'O-MTase were 1000 nM and 500 nM, respectively. The “inhibition of nsp14 N7-MTase at 100 µM (in words)” value against SARS-CoV nsp14 N7-MTase is “efficiently inhibited”. In addition, the IC50 worked out at 16000 nM at SARS-CoV nsp14 N7-MTase (read-out: IC50 N7-MTase activity of nsp14) and 12000 nM in assay [1] (read-out: IC50 2'O-MTase activity of nsp10/nsp16). Moreover, the “inhibition of nsp16/nsp10 2'O-MTase at 100 µM (in words)” value in assay [1] is recorded as “efficiently inhibited”.

In the case of `Nc1nc2c(ncn2[C@@H]2O[C@H](COP(=O)(O)OP(=O)(O)OP(=O)(O)OC[C@H]3O[C@@H](n4cnc5c(N)ncnc54)[C@H](O)[C@@H]3O)[C@@H](O)[C@H]2O)c(=O)[nH]1` [GpppA], the “inhibition of nsp14 N7-MTase at 100 µM” value against SARS-CoV nsp14 N7-MTase stood at 50%. In addition, the “inhibition of nsp16/nsp10 2'O-MTase at 100 µM” value in assay [1] is 50%.

Regarding `Cn1c[n+]([C@@H]2O[C@H](COP(=O)(O)OP(=O)(O)OP(=O)(O)OC[C@H]3O[C@@H](n4cnc5c(N)ncnc54)[C@H](O)[C@@H]3O)[C@@H](O)[C@H]2O)c2nc(N)[nH]c(=O)c21` [^7MeGpppA], the “inhibition of nsp14 N7-MTase at 100 µM” value against SARS-CoV nsp14 N7-MTase came out at 50%. Moreover, the “inhibition of nsp16/nsp10 2'O-MTase at 100 µM” value in assay [1] is 50%.

For the molecule `O=C(O)C1=CC(=C(c2ccc(O)c(C(=O)O)c2)c2ccc(O)c(C(=O)O)c2)C=CC1=O` [ATA, aurintricarboxylic acid], at SARS-CoV nsp14 N7-MTase, the “IC50 N7-MTase activity of nsp14” value was “micromolar range” and the “inhibition of nsp14 N7-MTase at 100 µM (in words)” value is recorded as “efficiently inhibited”. In addition, the IC50 against SARS-CoV nsp14 N7-MTase (IC50 N7-MTase activity of nsp14) was 6400 nM and 2100 nM. In assay [1], the “IC50 2'O-MTase activity of nsp10/nsp16” value is “micromolar range” and the “inhibition of nsp16/nsp10 2'O-MTase at 100 µM (in words)” value was “efficiently inhibited”. Further, in assay [1] (IC50 2'O-MTase activity of nsp10/nsp16), the IC50 is 2100 nM and 6400 nM. Moreover, the “inhibition of SARS-CoV replication” value with SARS-CoV is reported as “inhibit SARS-CoV replication”.
